From paper PMC10578023 (Cell Communication and Signaling : CCS, 2023)

Assays:
JAK2/JAK2 [1] = assay: TPO-stimulated pSTAT3/STAT5 in platelets of human whole blood; type: cell-based
Method: Stimulation was terminated by adding Lyse/Fix buffer. Staining with BUV786 mouse anti-human CD61 antibody (744384; BD Biosciences) was carried out, followed by washing, permeabilization and staining with PE mouse anti-human STAT3 antibody (651004; BD Biosciences) and APC mouse anti-human STAT5 antibody (562076; BD Biosciences), as described above. The expression of p-STAT3 and STAT5 was quantified by the MFI after the number of CD61-positive platelets was optimized.

JAK1/JAK3 [2] = assay: IL-2-stimulated pSTAT5 in human whole blood; type: cell-based
Method: With respect to IL-2-stimulated JAK1/3 activation in human whole blood cells, whole blood (50 μL) was preincubated with compounds for 30 min and then stimulated with IL-2 (20 ng/mL) for 15 min.
(§1) The stimulations stated above were terminated with prewarmed Lyse/Fix Buffer (558,049; BD Biosciences, San Jose, CA, USA) for 10 min. Cells were stained with an anti-cluster of differentiation (CD)3 fluorescein isothiocyanate (FITC) antibody (required for PBMCs but not for the other cell types), washed, and permeabilized on ice using Perm III Buffer (558,050; BD Biosciences) prior to staining with an Alexa Fluor 647 anti-phosphorylated (p)STAT5 (pY694) antibody for 30 min and analyzed by flow cytometry. Phosphorylation of STAT5 was quantified by the median fluorescence intensity (MFI) after gating on the CD3-positive population.

TYK2/JAK1 [3] = assay: IFNα-stimulated pSTAT5 in human PBMC (CD3+), FACS; type: cell-based
Method: With regard to IFNα-stimulated phosphorylation of STAT5 in human peripheral blood mononuclear cells (PBMCs), after incubation with QL-1200186 for 1 h, human PBMCs were stimulated with recombinant human IFNα (1000 U/mL; 11200–2; PBL Assay Science) for 30 min.
as §1

JAK1/JAK3 [4] = assay: IL-2-stimulated pSTAT5 in human PBMC; type: cell-based; details: @10μM
Method: With regard to IL-2-stimulated JAK1/3 activation in human PBMCs, after 1 h of incubation with QL-1200186, human PBMCs were stimulated with human IL-2 (20 ng/mL; C013; Novoprotein) for 20 min.
as §1

TYK2/JAK1 [5] = assay: IFNα-induced pSTAT1 in CD3+ T cells of human PBMCs; type: cell-based
Method: (§2) The reaction was terminated by collecting cells for surface staining. Cells were stained with anti-CD3 FITC (300406; Biolegend, San Diego, CA, USA), anti-CD19 APC (555415; BD Biosciences) or aqua fluorescent reactive dye BV421 (L34966A; Invitrogen, Carlsbad, CA, USA) antibodies for 20 min. After washing, fixation buffer (557870; BD Biosciences) was added and incubated for 10 min. Cells were washed and permeabilized on ice using Perm III Buffer (558050; BD Biosciences). Cells were stained with PE anti-PSTAT1 antibody (562069; BD Biosciences) for 30 min and analyzed by flow cytometry.

TYK2/JAK1 [6] = assay: IFNα-induced pSTAT1 in CD19+ B cells of human PBMCs; type: cell-based
Method: as §2

TYK2/JAK1 [7] = assay: IL-23-induced pSTAT3 in human Th17 cells; type: cell-based
Method: Human naïve CD4^+ T cells were separated using a human naïve CD4^+ T-cell isolation kit (StemCell, #17,852), and then cells were stimulated with anti-CD3 monoclonal antibody and anti-CD28 monoclonal antibody for 7–10 days under the following Th17-skewing treatments: IL-6, IL-23, IL-1β and transforming growth factor-β. Half of the medium was replaced with fresh medium containing a stimulant to induce differentiation every other day. Th17 cells were incubated overnight at 37 °C for deactivation. Cells were reinoculated on 96-well plates and cocultured with gradient-diluted QL-1200186 for 1 h and then stimulated with recombinant human IL-23 (ACRO: #IL-B-H52 WS) for 0.5 h. Cells were collected, and phosphorylation of STAT3 was quantified according to the MFI.

TYK2/JAK2 = assay: IL-12/IL-18-induced IFNγ production in NK-92 cells, ELISA; type: cell-based, human
Method: The inhibitory effect of QL-1200186 on IL-12/IL-18-induced IFNγ production in NK cells or human whole blood was determined by enzyme-linked immunosorbent assay (ELISA). NK92 cells were stimulated with recombinant human IL-12 (2 ng/mL; 200–12; PeproTech, Cranbury, NJ, USA) and recombinant human IL-18 (5 ng/mL; 9124-IL-050/CF; R&D Systems, Minneapolis, MN, USA) with or without QL-1200186 for 24 h at 37 °C. For human whole blood cells, whole blood (200 μL) was preincubated with the compound for 1 h and then stimulated with recombinant human IL-12 (2 ng/mL) or recombinant human IL-18 (10 ng/mL) for 24 h. After centrifugation, the supernatant was collected, and IFNγ production in the supernatant was measured with human IFNγ ELISA kits according to the manufacturer’s instructions (Biolegend, 430,104).

TYK2/JAK1 [8] = assay: IFNα HEK293 (HEK-Blue IFN-α/β) reporter gene assay; type: cell-based, human
Method: HEK-Blue™ IFN-α/β cells were used to determine the activity of QL-1200186. After 24 h of incubation with QL-1200186, HEK-Blue™ IFN-α/β cells (Invivogen; NKB-IFNAB) were stimulated with human IFNα (200 U/mL; catalog number: 11200–2; PBL Assay Science; Piscataway, NJ, USA) for 6 h. Stimulation of HEK-Blue IFN-α/β cells with human IFNα activates the JAK/STAT/ISGF3 pathway and subsequently induces the production of SEAP. Levels of SEAP in the supernatant were readily assessable using QUANTI-Blue™ Solution (InvivoGen, San Diego, CA, USA).

JAK2/JAK2 [9] = assay: GM-CSF-stimulated pSTAT5 in U937 cells; type: cell-based, human; details: @10μM
Method: With respect to GM-CSF-stimulated JAK2 activation in U937 cells (Cobioer Biosciences, CBP60277), after 1 h of treatment with QL-1200186, U937 cells were stimulated with GM-CSF (20 ng/mL; C003; Novoprotein, Suzhou, China) for 15 min.
as §1

TYK2/JAK1 [10] = assay: IL-23 HEK293 reporter assay; type: cell-based, human

| Compound | activity in thrombopoietin (TPO)-induced JAK2/JAK2 signaling (JAK2/JAK2 [1]; human whole blood) | activity in IL-2-mediated JAK1/JAK3 signaling (JAK1/JAK3 [2]) | IC50 (TYK2/JAK1 [3]) | IL-2- pSTAT5 in PBMC (JAK1/JAK3) inhibition (JAK1/JAK3 [4]) | IC50 (TYK2/JAK1 [5]) | IC50 (TYK2/JAK1 [6]) | TPO-pSTAT3/STAT5 in human whole blood (JAK2/JAK2) inhibition (JAK2/JAK2 [1]; @10μM) | IC50 (TYK2/JAK1 [7]) | IC50 (TYK2/JAK2) | IC50 (TYK2/JAK1 [8]) | GM-CSF-pSTAT5 in U937 (JAK2/JAK2) inhibition (JAK2/JAK2 [9]) | IC50 (TYK2/JAK1 [10]) |
| --- | --- | --- | --- | --- | --- | --- | --- | --- | --- | --- | --- | --- |
| CNc1cc(Nc2cccn(-c3ccccn3)c2=O)nc2c(C(=O)N[C@@H]3CC[C@H]3OC)cnn12 [NDI-034858, reference compound] | no activity | no activity |  |  |  |  |  |  |  |  |  |  |
| deucravacitinib [BMS-986165, reference compound] |  | slight inhibitory effect | 19 nM | ~40% inhibition @10μM | 7.8 nM | 6.29 nM | no inhibition @10μM | 6 nM | 38.8 nM | 6.33 nM | ~10% inhibition @10μM | 6.41 nM |
